We go through 8 molecules from patent US9617213B2, “Synthetic analogues of xanthohumol” (UNIVERSITA' DI PISA, priority 2013, dated 2017).

Where two headings read alike, the source gives them in different places.

The term viability denotes a read-out of living cells in per cent, often relative to untreated cells.

Data set [1] has as its system hepatocytes. The following applies: high concentrations (exceeding 100 μM); cited from earlier work.
The test system of data set [2] is HUVEC cells. Nature of the data set: Migration (chemotaxis) assay, Boyden chambers. The format is cell-based, human. The following applies: for reduction of endothelial cell migration: 10 μM, HUVEC pre-treated for 24 hours, values standardised on control, FIG. 7; for inhibition of migration: 24 hours' pre-treatment, 10 μM and 20 μM, *P<0.05, FIG. 2. As for the experimental part: The chemotaxis assay was conducted with Boyden chambers [Albini A, Iwamoto Y, Kleinman H K, Martin G R, Aaronson S A, Kozlowski J M, McEwan R N. A rapid in vitro assay for quantitating the invasive potential of tumor cells. Cancer Res. 1987 Jun. 15; 47(12):3239-45; Albini A, Benelli R. The chemoinvasion assay: a method to assess tumor and endothelial cell invasion and its modulation. Nat Protoc. 2007; 2(3):504-11]. The HUVEC cells (5×10^4) were pre-treated for 24 hours with the inhibitors, resuspended in serum-free medium, and plated in the upper compartment of the Boyden chamber. The complete medium was added in the lower compartment of the chamber, and used as chemoattractant. The two chambers were separated by polycarbonate filters ([…]) coated with collagen (50 μg/mL). After 6 hours' incubation at 37° C., the filters were recovered, the cells present on the upper surface of the filter were mechanically removed, and those on the lower surface were fixed in absolute ethanol and stained with DAPI. The cells were then counted in eight consecutive fields on each filter by fluorescence microscopy.

Data set [3] addresses T1, MMP-2 (Homo sapiens, UniProt P08253).
T1 sequence (P08253 110-660): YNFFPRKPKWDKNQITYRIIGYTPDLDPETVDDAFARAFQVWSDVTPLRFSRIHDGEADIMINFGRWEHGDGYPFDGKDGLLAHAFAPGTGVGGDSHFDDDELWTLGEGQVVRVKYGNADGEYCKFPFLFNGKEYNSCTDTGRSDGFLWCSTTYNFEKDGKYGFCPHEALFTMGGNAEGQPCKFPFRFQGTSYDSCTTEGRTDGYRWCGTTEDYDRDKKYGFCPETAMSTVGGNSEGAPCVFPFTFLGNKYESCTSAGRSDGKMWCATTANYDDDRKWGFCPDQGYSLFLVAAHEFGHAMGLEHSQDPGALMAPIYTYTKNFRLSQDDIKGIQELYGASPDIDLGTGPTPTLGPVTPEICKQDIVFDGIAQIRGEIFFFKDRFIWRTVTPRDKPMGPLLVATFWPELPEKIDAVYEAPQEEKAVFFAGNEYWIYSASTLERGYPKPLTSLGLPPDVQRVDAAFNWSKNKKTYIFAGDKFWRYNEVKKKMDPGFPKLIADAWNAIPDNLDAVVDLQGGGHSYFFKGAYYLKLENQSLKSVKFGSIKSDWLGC
The following applies: 10 μM; cited from earlier work.

Data set [4] relates to hepatocarcinoma cell lines. The following applies: 25 μM; cited from earlier work.
Data set [5] concerns endothelial cells. The following applies: cited from earlier work.
Data set [6] has as its system endothelial cells. The following applies: cited from earlier work. This is another data set of the same source.
The test system of data set [7] is fibrosarcoma cells. The following applies: 10 μM; cited from earlier work.
The subject of data set [8] is HUVEC cells. Description: Invasion (chemoinvasion) assay, Boyden chambers, matrigel. Format: cell-based, human. The following applies: for reduction of endothelial cell invasion: 10 μM, HUVEC pre-treated for 24 hours, values standardised on control, FIG. 6; for invasion in the presence of serum (FBS): 24 hours' pre-treatment, even at 10 μM, *P<0.05, FIG. 3. As for the experimental part:
The chemoinvasion assay was conducted with Boyden chambers [Albini A, Iwamoto Y, Kleinman H K, Martin G R, Aaronson S A, Kozlowski J M, McEwan R N. A rapid in vitro assay for quantitating the invasive potential of tumor cells. Cancer Res. 1987 Jun. 15; 47(12):3239-45; Albini A, Benelli R. The chemoinvasion assay: a method to assess tumor and endothelial cell invasion and its modulation. Nat Protoc. 2007; 2(3):504-11]. The HUVEC cells (5×10^4) were pre-treated for 24 hours with the inhibitors, resuspended in serum-free medium, and plated in the upper compartment of the chamber. The complete medium was added in the lower compartment of the chamber, and used as chemoattractant. The 12 m polycarbonate filters were coated with matrigel (1 mg/mL). After 18 hours' incubation, the cells in the upper compartment of the chamber were mechanically removed, while those adhering to the lower surface of the filter were fixed in absolute ethanol and stained with DAPI. The cells were counted double-blind in eight consecutive fields by fluorescence microscopy.

For data set [9], the system named is endothelial cells. The following applies: cited from earlier work. The source holds these as a separate data set.
The target in data set [10] is MMP-9 (Homo sapiens, UniProt P14780). The following applies: 10 μM; cited from earlier work.
MMP-9, sequence (P14780 94-707, species assumed): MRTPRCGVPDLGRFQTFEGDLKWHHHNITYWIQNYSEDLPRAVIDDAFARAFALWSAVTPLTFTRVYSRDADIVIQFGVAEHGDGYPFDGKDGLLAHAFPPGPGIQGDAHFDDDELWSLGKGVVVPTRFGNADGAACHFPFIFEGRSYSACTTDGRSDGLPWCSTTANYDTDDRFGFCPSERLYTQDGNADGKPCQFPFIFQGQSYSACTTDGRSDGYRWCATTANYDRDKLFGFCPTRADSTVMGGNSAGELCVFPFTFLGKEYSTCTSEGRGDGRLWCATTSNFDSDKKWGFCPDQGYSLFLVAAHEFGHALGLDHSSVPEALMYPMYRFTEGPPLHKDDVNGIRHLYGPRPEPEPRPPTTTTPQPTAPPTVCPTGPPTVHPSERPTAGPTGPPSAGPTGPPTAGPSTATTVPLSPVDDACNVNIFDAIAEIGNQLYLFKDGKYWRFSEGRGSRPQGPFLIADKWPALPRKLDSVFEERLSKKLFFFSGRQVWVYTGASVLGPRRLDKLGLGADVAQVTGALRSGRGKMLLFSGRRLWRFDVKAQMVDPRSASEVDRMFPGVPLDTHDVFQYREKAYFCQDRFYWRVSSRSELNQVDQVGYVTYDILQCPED
In data set [11] the test system is prostate cancer cell lines. The following applies: 40 μM; cited from earlier work.
The test system of data set [12] is HUVEC cells. Nature of the data set: MTT colorimetric viability assay. The format is cell-based, human. The following applies: for inhibition of cell growth: 20 μM, after 24 hours' treatment, FIG. 1. As for the experimental part: The viability of the HUVEC cells was evaluated with the MTT colorimetric assay (3-(4,5-dimethylthiazol-2-yl)-2,5-diphenyltetrazolium bromide). The cells (1000/well) were plated in complete medium in 96-well plates, and after complete adherence the medium was replaced with a new medium with or without the various inhibitors at different concentrations. The plates were processed at different incubation times (24, 48, 72 and 96 hours), and the absorbance was measured at 570 nm.
(Tetrazolium dyes change colour on reduction, which living cells bring about.)

Data set [13] concerns HUVEC cells. Nature of the data set: Apoptosis assay (Annexin V / 7-AAD cytofluorimetry). The format is cell-based, human. The following applies: 10 μM, 24 hours, FIG. 5. As for the experimental part: (§1) The HUVEC cells (1×10^5) were plated in six-well plates and left to adhere for 18 hours. The next day, the cells were pre-treated with inhibitors LR6 and LR7 (10 μM) in the presence of complete medium. After 24 hours, the cells were detached, washed with PBS and transferred to tubes for cytofluorimetric analysis. The cells were pelletted and resuspended in Annexin V-binding buffer (0.01M HEPES (4-(2-hydroxyethyl)-1-piperazineethanesulphonic acid) (pH 7.4); 0.14 M NaCl; 2.5 mM CaCl2. Fluorescein isothiocyanate Annexin V and 7-amino-actinomycin D were added to the tubes, and the cells were incubated for 15 minutes at room temperature in the dark. The cells were then washed in PBS, the supernatant was removed and the cells resuspended in […] of binding buffer. The samples were analysed on a FACSCanto cytofluorimeter (BD Biosciences), and analysed with FACSDiva Software 6.1.2.

Test in data set [14]: as above
The following applies: human, HUVEC cells, FIG. 5, read-out: percentage of viability. The format is cell-based, human. The method, then:
as §1

Data set [15] deals with HUVEC cells. Description: Morphogenesis on matrigel (capillary-like structures). The format is cell-based, human. The following applies: 24 hours' pre-treatment, FIG. 4. The method, then: A 24-well plate was coated with 300 μl/well of liquid matrigel (10 mg/mL) at 4° C., using cold pipettes and avoiding bubbles. The plate was then incubated for one hour at 37° C., until the matrigel polymerised. The HUVEC cells, pre-treated with the different inhibitors, were resuspended in 1 mL of complete medium and then plated in the different wells. The serum-free medium was used as negative control (CTRL−). After 6 hours' incubation, the organisation of the cells in capillary-like structures was examined with an inverted microscope equipped with a camera for the acquisition of images and a digital analysis system.

Data set [16] relates to fibrosarcoma cells. The following applies: cited from earlier work.

For `COc1cc(O)c(CC=C(C)C)c(O)c1C(=O)/C=C/c1ccc(O)cc1` [XN, Xanthohumol], the “viability of the hepatocytes” value in data set [1] is on record as “no effect on the viability”. Also, in [2], the “reduction of endothelial cell migration” value is given as “about 50%”. The “activity of MMP-2” value in data set [3] is “strongly inhibited”. The apoptosis result in data set [4] is “induces apoptosis”. The “chemotaxis of the endothelial cells and invasion in vitro” value in [5] (5 μM) was “inhibits chemotaxis”; in data set [5] (10 μM), “complete inhibition”. Also, the toxicity result in data set [6] (200 μM) was “no toxicity was observed”. Moreover, the “concentration interval in which effects on morphogenesis are evident” value in [6] was 5 to 10 µM. Also, in data set [7], the “invasion by fibrosarcoma cells” value is recorded as “inhibits invasion”. The “reduction of endothelial cell invasion” value in data set [8] is “about 60%”. Also, the “cytotoxic activity against activated endothelial cells” value in data set [9] (10 μM) is on record as “potent cytotoxic activity”. Also, the “concentration at which cell death is observed” value in data set [9] was “exceeding 25 μM”. For the same molecule, the “effect on endothelial cells at lower concentrations” value in data set [9] (concentrations lower than 10 μM, even after long exposure times) is recorded as “does not exhibit any significant effect”. The “activity of MMP-9” value in data set [10] is “inhibits”. Moreover, the “growth of prostate cancer cell lines” value in data set [11] is “inhibitory effect”.

For the molecule `COc1cc(O)c(CC=C(C)C)c(O)c1C(=O)/C=C/c1ccc(F)cc1F` [LR19, (E)-3-(2,4-difluorophenyl)-1-[2,4-dihydroxy-6-methoxy-3-(3-methyl-but-2-enyl)-phenyl]-prop-2-en-1-one], in [2], the “reduction of endothelial cell migration” value is reported as “about 80%”.

With `COCOc1cc(OC)c(C(=O)/C=C/c2ccc(F)cc2)c(O)c1CC=C(C)C` [LR7, (E)-3-(4-fluorophenyl)-1-[2-hydroxy-6-methoxy-4-(methoxymethyloxy)-3-(3-methyl-but-2-enyl]-phenyl)prop-2-en-1-one], the “inhibition of cell growth” value in data set [12] was “Significant inhibition of cell growth”. Moreover, the cytostatic activity result in data set [12] (10 and 20 μM, after 48 hours' incubation) is “exhibited cytostatic activity”. The inhibition of migration result in data set [2] is “Significant inhibition of migration”. Further, the apoptosis result in data set [13] is listed as “absence of apoptosis”. Besides, the viability at 24 h, 10 µM in data set [14] is about 90%. Besides, the “invasion in the presence of serum (FBS)” value in data set [8] is given as “significantly reduces invasion”. Also, in [15], the FBS-dependent morphogenesis entry is recorded as “interferes with FBS-dependent morphogenesis”.

In the case of `COCOc1cc(OC)c(C(=O)/C=C/c2ccc(F)cc2F)c(OCOC)c1CC=C(C)C` [LR17, (E)-3-(2,4-difluoro-phenyl)-1-[6-methoxy-2,4-dimethoxymethyloxy-3-(3-methyl-but-2-enyl)phenyl]-prop-2-en-1-one], in data set [8], the “reduction of endothelial cell invasion” value is reported as about 75%.

In the case of `COc1cc2c(c(O)c1C(=O)/C=C/c1ccc(O)cc1)C=CC(C)(C)O2` [XNC, xanthohumol C], the cytotoxic effect result in data set [16] is given as “loss of cytotoxic activity”.

Consider `COc1cc(O)c(CC=C(C)C)c(O)c1C(=O)/C=C/c1ccc(F)cc1` [LR6, (E)-1-[2,4-dihydroxy-6-methoxy-3-(3-methyl-but-2-enyl)prenyl]-3-(4-fluorophenyl)-prop-2-en-1-one], for which the cell proliferation entry in data set [12] (10 μM, after 72 and 96 hours' treatment) is “able to reduce cell proliferation”. The “inhibition of cell growth” value in [12] is recorded as “Significant inhibition of cell growth”. In data set [2], the “reduction of endothelial cell migration” value is about 75% and the inhibition of migration entry was “Significant inhibition of migration”. Moreover, in data set [13], the apoptosis entry was “absence of apoptosis”. Besides, the viability at 24 h, 10 µM in data set [14] was about 90%. In data set [8], the “invasion in the presence of serum (FBS)” value is given as “significantly reduces invasion”. For the same molecule, the FBS-dependent morphogenesis entry in [15] is listed as “interferes with FBS-dependent morphogenesis”.

Consider `COc1cc(O)c(CC=C(C)C)c(O)c1C(=O)/C=C/c1ccc(F)c(F)c1` [LR16, (E)-3-(3,4-difluorophenyl)-1-[2,4-dihydroxy-6-methoxy-3-(3-methyl-but-2-enyl)-phenyl]-prop-2-en-1-one], for which the “reduction of endothelial cell invasion” value in [8] is “about 80%”.

Regarding O-methylxanthohumol ether SEM [XN-SEM], the cytotoxic effect result in data set [16] is on record as “no cytotoxic effect”.
